Drawing on patent US20220033397A1, “PHARMACEUTICAL COMPOUNDS AND THEIR USE AS INHIBITORS OF UBIQUITIN SPECIFIC PROTEASE 19 (USP19)” (ALMAC DISCOVERY LIMITED, priority 2018, published 2022), this text covers IC50 for 23 molecules.

Some results are limits rather than exact numbers.

This assay addresses T1, Full-length USP19 (Homo sapiens, UniProt O94966).
T1 construct: Full-length USP19 was purchased from Boston Biochem (E-576); purchased Boston Biochem E-576
T1 sequence (O94966 1-1318): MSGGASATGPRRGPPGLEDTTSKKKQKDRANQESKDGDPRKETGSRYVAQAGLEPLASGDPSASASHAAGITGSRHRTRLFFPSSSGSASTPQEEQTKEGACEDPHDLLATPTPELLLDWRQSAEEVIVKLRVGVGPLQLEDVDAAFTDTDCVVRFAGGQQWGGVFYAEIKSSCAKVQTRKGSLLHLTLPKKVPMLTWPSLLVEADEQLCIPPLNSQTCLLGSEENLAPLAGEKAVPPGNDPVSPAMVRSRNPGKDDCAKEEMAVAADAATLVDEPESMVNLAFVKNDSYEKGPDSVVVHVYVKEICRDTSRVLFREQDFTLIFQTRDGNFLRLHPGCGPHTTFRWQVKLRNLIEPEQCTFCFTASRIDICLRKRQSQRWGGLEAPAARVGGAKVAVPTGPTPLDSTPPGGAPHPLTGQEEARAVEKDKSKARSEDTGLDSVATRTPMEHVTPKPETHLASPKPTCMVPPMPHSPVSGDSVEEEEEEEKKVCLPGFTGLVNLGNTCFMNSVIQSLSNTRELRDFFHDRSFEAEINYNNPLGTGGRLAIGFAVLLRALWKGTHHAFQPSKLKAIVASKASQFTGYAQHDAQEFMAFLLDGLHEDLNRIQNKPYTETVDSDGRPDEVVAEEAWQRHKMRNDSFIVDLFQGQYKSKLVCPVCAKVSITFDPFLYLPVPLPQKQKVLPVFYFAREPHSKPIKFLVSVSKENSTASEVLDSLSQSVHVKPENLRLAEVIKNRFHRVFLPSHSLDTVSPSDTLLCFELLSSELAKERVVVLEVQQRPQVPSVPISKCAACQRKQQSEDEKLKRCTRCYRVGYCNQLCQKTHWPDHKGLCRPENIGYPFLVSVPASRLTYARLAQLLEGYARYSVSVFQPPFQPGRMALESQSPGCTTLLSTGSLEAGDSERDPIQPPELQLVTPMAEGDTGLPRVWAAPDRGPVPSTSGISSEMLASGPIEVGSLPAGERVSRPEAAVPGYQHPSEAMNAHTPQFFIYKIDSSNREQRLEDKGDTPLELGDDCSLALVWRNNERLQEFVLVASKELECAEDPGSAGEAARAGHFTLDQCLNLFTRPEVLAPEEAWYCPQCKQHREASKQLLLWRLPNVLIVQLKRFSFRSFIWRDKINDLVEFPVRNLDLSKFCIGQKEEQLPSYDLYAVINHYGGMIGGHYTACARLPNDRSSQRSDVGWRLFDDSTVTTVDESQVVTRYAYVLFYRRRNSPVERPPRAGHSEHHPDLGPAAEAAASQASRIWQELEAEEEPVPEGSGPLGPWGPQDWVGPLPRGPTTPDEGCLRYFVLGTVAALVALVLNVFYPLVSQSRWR
Nature of the assay: USP19 fluorescence polarisation (FP) homogeneous assay with Ubiquitin-Lys-TAMRA substrate. The class given is biochemical. The settings on record: 2.5 nM USP19, 30 min pre-incubation, average of at least two duplicate experiments. An outline of the steps: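 Full-length USP19 preincubated 30 min at RT with inhibitor (200 μM to 2 μM series, 8–18 points) before adding 500 nM Ubiquitin-Lys-TAMRA substrate.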
(In fluorescence polarisation assays a small probe gives low polarisation when free and higher when bound to something large.)
For orientation: IC50 means the concentration that gives 50% inhibition. With `Cc1cn(CC2(O)CCN(C(=O)[C@H](C)CC3CCCCC3)CC2(C)C)c(=O)cn1` (stereo partly drawn) [Example 21, 1-((1-((R)-3-Cyclohexyl-2-methylpropanoyl)-4-hydroxy-3,3-dimethylpiperidin-4-yl)methyl)-5-methylpyrazin-2(1H)-one], the IC50 was 5 to 50 µM.

For `O=C(NCc1ccco1)N1CC[C@@](O)(Cn2cnc(-c3ccccc3)cc2=O)C2(CCCC2)C1` [Example 219, (S)—N-(Furan-2-ylmethyl)-10-hydroxy-10-((6-oxo-4-phenylpyrimidin-1(6H)-yl)methyl)-7-azaspiro[4.5]decane-7-carboxamide], the IC50 was less than 0.5 µM.

As to `C[C@H](CC1CCCCC1)C(=O)N1CCC(O)(Cn2cc(S(C)(=O)=O)c(-c3ccccc3)cc2=O)C2(CCCC2)C1` (stereo partly drawn) [Example 80, 1-((7-((R)-3-Cyclohexyl-2-methylpropanoyl)-10-hydroxy-7-azaspiro[4.5]decan-10-yl)methyl)-5-(methylsulfonyl)-4-phenylpyridin-2(1H)-one], the IC50 was less than 0.5 µM.

Regarding `O=C(N1CCC(O)(Cn2ccc(-c3ccccc3)cc2=O)C2(CCCC2)C1)N1CCNCC1c1cc(F)ccc1F` [Example 374, 1-(((S)-7-((R)-2-(2,5-Difluorophenyl)piper-azine-1-carbonyl)-10-hydroxy-7-azaspiro[4.5]decan-10-yl)methyl)-4-phenylpyridin-2(1H)-one], the IC50 is less than 0.5 µM.

For `O=C(N1CC[C@@](O)(Cn2cnc(N3CC(F)(F)C3)cc2=O)C2(CCCC2)C1)N1CCNC[C@H]1c1ccccc1` [Example 357, 6-(3,3-Difluoro-azetidin-1-yl)-3-(((S)-10-hydroxy-7-((R)-2-phenylpiperazine-1-carbonyl)-7-aza-spiro[4.5]decan-10-yl)methyl)pyrimidin-4(3H)-one], the IC50 was less than 0.5 µM.

For `O=C1COCCN1CC1(O)CCN(C(=O)N2CCOC[C@H]2c2ccccc2)CC12CCCC2` (stereo partly drawn) [Example 117, 4-((10-Hydroxy-7-((R)-3-phenylmorpholine-4-carbonyl)-7-azaspiro[4.5]decan-10-yl)methyl)morpholin-3-one], the IC50 lay in the range of 5 to 50 µM.

Take `Cn1cc(-c2cc(=O)n(C[C@]3(O)CCN(C(=O)N4CCOC[C@H]4c4ccccc4)CC34CCCC4)cn2)cn1` [Example 225, 3-(((S)-10-Hydroxy-7-((R)-3-phenylmorpholine-4-carbonyl)-7-azaspiro[4.5]decan-10-yl)methyl)-6-(1-methyl-1H-pyrazol-4-yl)pyrimidin-4(3H)-one]: the IC50 was less than 0.5 µM.

Consider `CSc1ncc2c(=O)n(CC3(O)CCN(C(=O)[C@H](C)CC4CCCCC4)CC34CCCC4)n(C)c2n1` (stereo partly drawn) [Example 54, 2-((7-((R)-3-Cyclohexyl-2-methylpropanoyl)-10-hydroxy-7-azaspiro[4.5]decan-10-yl)methyl)-1-methyl-6-(methylthio)-1,2-dihydro-3H-pyrazolo[3,4-d]pyrimidin-3-one], for which the IC50 is less than 0.5 µM.

Regarding `O=C(N1CCC(O)(Cn2ccc(-c3ccccc3)c(F)c2=O)C2(CCCC2)C1)N1CCNC[C@H]1c1ccccc1` (stereo partly drawn) [Example 332, 3-Fluoro-1-((10-hydroxy-7-((R)-2-phenylpiperazine-1-carbonyl)-7-azaspiro[4.5]decan-10-yl)methyl)-4-phenylpyridin-2(1H)-one], the IC50 fell in the range of 0.5 to 5 µM.

Regarding `O=C(N1CC[C@@](O)(Cn2ccc(Cl)cc2=O)C2(CCCC2)C1)N1CCNC[C@H]1c1ccccc1` [Example 326, 4-Chloro-1-(((S)-10-hydroxy-7-((R)-2-phenylpiperazine-1-carbonyl)-7-azaspiro[4.5]decan-10-yl)methyl)pyridin-2(1H)-one], the IC50 was less than 0.5 µM.

Turning to `Cn1nccc1-c1cc(=O)n(C[C@]2(O)CCN(C(=O)N3CCNC[C@H]3c3ccccc3)CC23CCCC3)cn1` [Example 289, 3-(((S)-10-Hydroxy-7-((R)-2-phenylpiperazine-1-carbonyl)-7-azaspiro[4.5]decan-10-yl)methyl)-6-(1-methyl-1H-pyrazol-5-yl)pyrimidin-4(3H)-one], the IC50 was less than 0.5 µM.

Turning to `C[C@H](CC1CCCCC1)C(=O)N1CCC(O)(Cn2cnc3ccc(F)cc3c2=O)C2(CCCC2)C1` (stereo partly drawn) [Example 154, 3-((7-((R)-3-Cyclohexyl-2-methylpropanoyl)-10-hydroxy-7-azaspiro[4.5]decan-10-yl)methyl)-6-fluoroquinazolin-4(3H)-one], the IC50 was less than 0.5 µM.

Consider `C[C@H](CC(F)(F)F)C(=O)N1CCC(O)(CN2C(=O)COCC23CC3)C2(CCCC2)C1` (stereo partly drawn) [Example 96, 4-((10-Hydroxy-7-((R)-4,4,4-trifluoro-2-methylbutanoyl)-7-azaspiro[4.5]decan-10-yl)methyl)-7-oxa-4-azaspiro[2.5]octan-5-one], for which the IC50 was in the range of 50 to 250 µM.

Regarding `O=C(N1CC[C@@](O)(Cn2cnc(-c3ccccc3C(F)F)cc2=O)C2(CCCC2)C1)N1CCNC[C@H]1c1ccccc1` [Example 366, 6-(2-(Difluoro-methyl)phenyl)-3-(((S)-10-hydroxy-7-((R)-2-phenylpiperazine-1-carbonyl)-7-aza-spiro[4.5]decan-10-yl)methyl)pyrimidin-4(3H)-one], the IC50 is less than 0.5 µM.

For `O=C(NCc1ccccc1)N1CCC(O)(Cn2cnc(N3CCCC3)cc2=O)C2(CCCC2)C1` (centres unmarked) [Example 202, N-Benzyl-10-hydroxy-10-((6-oxo-4-(pyrrolidin-1-yl)pyrimidin-1(6H)-yl)methyl)-7-azaspiro[4.5]decane-7-carboxamide], the IC50 lay in the range of 5 to 50 µM.

For the molecule `O=C(N1CC[C@@](O)(Cn2cnc(-c3ccccc3)cc2=O)C2(CCCC2)C1)N1CCS(=O)(=O)C[C@H]1c1cc(F)ccc1F` [Example 394, 3-(((S)-7-((R)-3-(2,5-Difluoro-phenyl)-1,1-dioxidothio-morpholine-4-carbonyl)-10-hydroxy-7-aza-spiro[4.5]decan-10-yl)methyl)-6-phenylpyrimidin-4(3H)-one], the IC50 was less than 0.5 µM.

`O=C(N1CCCC2(CC2)C1)N1CCC(O)(Cn2cnc(-c3ccccc3)cc2=O)C2(CCCC2)C1` (centres unmarked) [Example 250, 3-((10-Hydroxy-7-(5-azaspiro[2.5]octane-5-carbonyl)-7-azaspiro[4.5]decan-10-yl)methyl)-6-phenylpyrimidin-4(3H)-one]: the IC50 was in the range of 5 to 50 µM.

Consider `O=C(N1CCOC(F)(F)C1)N1CCC(O)(Cn2cnc(-c3ccccc3)cc2=O)C2(CCCC2)C1` (centres unmarked) [Example 253, 3-((7-(2,2-Difluoromorpholine-4-carbonyl)-10-hydroxy-7-azaspiro[4.5]decan-10-yl)methyl)-6-phenylpyrimidin-4(3H)-one], for which the IC50 lay within 5 to 50 µM.

Consider `CN(CC1CC1)C(=O)N1CC[C@@](O)(Cn2cnc(-c3ccccc3)cc2=O)C2(CCCC2)C1` [Example 313, (S)—N-(Cyclopropylmethyl)-10-hydroxy-N-methyl-10-((6-oxo-4-phenylpyrimidin-1(6H)-yl)methyl)-7-azaspiro[4.5]decane-7-carboxamide], for which the IC50 is 0.5 to 5 µM.

`O=C(N1CC[C@@](O)(Cn2ccc3ncncc3c2=O)C2(CCCC2)C1)N1CCNC[C@H]1c1ccccc1` [Example 185, 6-(((S)-10-Hydroxy-7-((R)-2-phenylpiperazine-1-carbonyl)-7-azaspiro[4.5]decan-10-yl)methyl)pyrido[4,3-d]pyrimidin-5(6H)-one]: the IC50 is less than 0.5 µM.

For `CN(C(=O)N1CCC(O)(Cn2cnc(-c3ccccc3)cc2=O)C2(CCCC2)C1)C1CCC1` (centres unmarked) [Example 234, N-Cyclobutyl-10-hydroxy-N-methyl-10-((6-oxo-4-phenylpyrimidin-1(6H)-yl)methyl)-7-azaspiro[4.5]decane-7-carboxamide], the IC50 is 5 to 50 µM.

As to `Cc1ccc(-c2cc(=O)n(C[C@]3(O)CCN(C(=O)N4CCNC[C@H]4c4ccccc4)CC34CCCC4)cn2)cc1` [Example 342, 3-(((S)-10-Hydroxy-7-((R)-2-phenylpiperazine-1-carbonyl)-7-azaspiro[4.5]decan-10-yl)methyl)-6-(p-tolyl)pyrimidin-4(3H)-one], the IC50 is less than 0.5 µM.

`Cc1cccc(-c2cc(=O)n(C[C@]3(O)CCN(C(=O)N4CCNC[C@H]4c4ccccc4)CC34CCCC4)cn2)c1` [Example 341, 3-(((S)-10-Hydroxy-7-((R)-2-phenylpiperazine-1-carbonyl)-7-azaspiro[4.5]decan-10-yl)methyl)-6-(m-tolyl)pyrimidin-4(3H)-one]: the IC50 was less than 0.5 µM.
